≈ marks a conversion by molar mass, not a printed value. Results filed as inconclusive are left out. Calls of active or inactive are those of the source. The rule behind the calls is not given here. Where only a bound is given, the exact number is not on record here.

The assay relates to M. tuberculosis H37Rv growth inhibition. Description: Mycobacterium tuberculosis H37Rv growth inhibition, cell based, confirmatory dose response (AID 1949).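 Note: bacteria grown 7 days with compound before Alamar blue readout.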
Turning to `C=CCn1c(O)c(C2=c3ccccc3=NC2=O)sc1=N`, the IC50 (commonly the concentration that inhibits the measured activity by half) was under 0.1 µg/mL.

With `O=C(Nc1ccc(N2CCCC2)c(Cl)c1)c1ccccc1F`, the IC50 was 5.78 µg/mL (≈ 18.1 µM).

Regarding `CCC(C)c1ccc(O)c(NC(=S)NC(=O)c2cccnc2)c1` (centres undefined), the IC50 was under 0.1 µg/mL.

In the case of `Cc1cc(C)c(OCCCCNCc2ccccc2)c(Cl)c1`, the half-inhibitory concentration (IC50) was 5.18 µg/mL (≈ 16.3 µM).

Regarding `O=C(NCCCN1CCN(c2ccc(F)cc2)CC1)NC12CC3CC(CC(C3)C1)C2`, the IC50 was > 50 µg/mL (inactive).

With `C1=CC2CC1CC2CN1CCC(N(CCc2ccccc2)Cc2ccccc2)CC1` (centres undefined), the IC50 is 1.4 µg/mL (≈ 3.49 µM).

For `O=C(CCN1CCCCCC1)c1ccc(Cl)cc1`, the 50% inhibitory concentration (IC50) is 22.7 µg/mL (≈ 85.5 µM).

For the molecule `CCN(CC)CC(O)Cn1c(C)c(-c2ccccc2)c2cc([N+](=O)[O-])ccc21` (centres undefined), the IC50 was 29.4 µg/mL (≈ 77 µM).

On to `Oc1ccc(Br)cc1-c1nc(-c2cccs2)c(-c2cccs2)[nH]1`, for which the IC50 was 1.55 µg/mL (≈ 3.84 µM).

In the case of `Cc1cccc(Nc2nc(NCc3ccco3)c3ccccc3n2)c1`, the IC50 was 1.86 µg/mL (≈ 5.63 µM).

With `S=C(NCCCN1CCN(c2ccc(Cl)cc2)CC1)Nc1cccc(Cl)c1`, the half-inhibitory concentration (IC50) was 3 µg/mL (≈ 7.09 µM).

In the case of `CC(C)(C)C(=O)NC(=S)NNC(=O)C(c1ccccc1)c1ccccc1`, the IC50 was 3.01 µg/mL (≈ 8.15 µM).

As for `CS(=O)(=O)c1ncc(Cl)c(C(=O)Nc2cc(C(F)(F)F)ccc2Cl)n1`, the IC50 was 17.1 µg/mL (≈ 41.3 µM).

Turning to `Nc1c2c(nc3sc4c(c13)CCCC4)CCCC2`, the IC50 is 0.6 µg/mL (≈ 2.32 µM).

As to `CC(NC(=O)NNC(=O)c1ccncc1)(C(F)(F)F)C(F)(F)F`, the IC50 is 0.18 µg/mL (≈ 0.523 µM).

Take `Cc1cccc(NC(=O)c2cc3cc([N+](=O)[O-])ccc3oc2=O)c1`: the IC50 is > 50 µg/mL (inactive).

With `Cc1ccc(-c2nn(-c3ccccc3)cc2CNCc2ccccc2)cc1`, the IC50 is 1.11 µg/mL (≈ 3.14 µM).

`Cc1cc(C)cc(OCC(=O)c2ccc(Br)cc2)c1`: the concentration for half-maximal inhibition (IC50) is 6.8 µg/mL (≈ 21.3 µM).

`COc1ccc(C2CC(=O)C3=C(C2)NC(C)=C(C(=O)Nc2ccccc2C)C3c2coc3ccc(C)cc3c2=O)cc1OC` (centres undefined): the half-inhibitory concentration (IC50) is 3.7 µg/mL (≈ 6.26 µM).

For `CCOC(=O)c1c(NC(=O)COc2ccccc2C)sc(C(=O)N2CCCC2)c1C`, the IC50 was > 50 µg/mL (inactive).

In the case of `O=C1c2cccc3cccc(c23)C(=O)N1CC1CCN(CC(O)COc2ccc3ccccc3c2)CC1` (centres undefined), the IC50 was 0.84 µg/mL (≈ 1.7 µM).

Consider `Cn1c(=O)c([N+](=O)[O-])c(Nc2cccc(C(F)(F)F)c2)c2ccccc21`, for which the IC50 was 15.4 µg/mL (≈ 42.3 µM).

Regarding `COC(=O)CSc1nnc(SCc2ccc(OC)cc2)s1`, the IC50 is 2.28 µg/mL (≈ 6.66 µM).

`Cc1ccccc1Nc1nc(NCc2ccco2)c2ccccc2n1`: the IC50 is 2.64 µg/mL (≈ 7.99 µM).

With `Cc1cc(Nc2ccc(N(C)C)cc2)c2cccc(C)c2n1`, the concentration for half-maximal inhibition (IC50) is 4.43 µg/mL (≈ 15.2 µM).

Regarding `O=C(Nc1ccc([N+](=O)[O-])cc1)c1nc[nH]c1C(=O)NCc1ccccc1`, the IC50 was 7.92 µg/mL (≈ 21.7 µM).

With `COc1ccc(CC(=O)Nc2ccc(-c3nc4ccccc4c(=O)o3)cc2)cc1`, the IC50 is 15.1 µg/mL (≈ 39 µM).

With `Cc1ccc(N2CC(C(=O)OCc3cccc(C(=O)Oc4ccccc4)c3)CC2=O)cc1` (centres undefined), the IC50 is > 50 µg/mL (inactive).

Take `Cc1ccc2nc(Cc3nc4ccc(C)cc4[nH]3)[nH]c2c1`: the IC50 is > 50 µg/mL (inactive).

Take `CC(Oc1ccc(C(=O)NC2CCCCC2)cc1)C(=O)OCc1ccccc1Cl` (centres undefined): the concentration for half-maximal inhibition (IC50) is 0.95 µg/mL (≈ 2.28 µM).

As for `CCCCOc1ccc(NC2=NC3(CCCCC3)N=C(N)N2)cc1`, the IC50 was 12.1 µg/mL (≈ 36.6 µM).

As to `Cc1cccc(COc2ccc(/C=C/[N+](=O)[O-])cc2)c1`, the IC50 was 21.4 µg/mL (≈ 79.5 µM).

As to `COc1cccc(OC)c1C(=O)Nc1cccc(-c2nc3cc(C)ccc3o2)c1`, the IC50 was > 50 µg/mL (inactive).

On to `Oc1ccccc1Nc1nc(NCc2ccco2)c2ccccc2n1`, for which the IC50 was 5.36 µg/mL (≈ 16.1 µM).

With `CCOc1cc(CNC23CC4CC(CC(C4)C2)C3)ccc1OCc1cccs1`, the IC50 is 0.82 µg/mL (≈ 2.06 µM).

Regarding `CCOc1ccc(Nc2nc(-c3sc(C)nc3C)cs2)cc1`, the IC50 is 3.38 µg/mL (≈ 10.2 µM).

`CN(C)c1ccc(CNC23CC4CC(CC(C4)C2)C3)cc1`: the IC50 is 1.43 µg/mL (≈ 5.03 µM).

For the molecule `Cc1sc(NC(=O)c2cc3ccccc3oc2=O)c(C(=O)OC(C)C)c1C`, the IC50 is 0.66 µg/mL (≈ 1.71 µM).

On to `O=C(Nc1ccccc1Br)c1ccc([N+](=O)[O-])o1`, for which the IC50 is 1.61 µg/mL (≈ 5.18 µM).

Regarding `CCOC(=O)COc1ccc(Br)c(C=O)c1`, the half-inhibitory concentration (IC50) is 5.47 µg/mL (≈ 19.1 µM).

In the case of `CCN1CCN(c2ccc(NC(=O)c3cc(Br)cc(C)c3OC)cc2Cl)CC1`, the IC50 was 4.8 µg/mL (≈ 10.3 µM).

With `CCCOc1ccc(C2Oc3ccc(Br)cc3C=C2[N+](=O)[O-])cc1OC` (centres undefined), the IC50 was 1.48 µg/mL (≈ 3.52 µM).

Consider `Cc1ccc(Cl)cc1N1CCN(CC(O)COc2ccc(Cl)cc2)CC1` (centres undefined), for which the IC50 is 4.57 µg/mL (≈ 11.6 µM).

Take `CCOC(=O)CSC1=C(C#N)C(c2ccccc2[N+](=O)[O-])C(C(C)=O)=C(C)N1` (centres undefined): the IC50 is 1.41 µg/mL (≈ 3.51 µM).

In the case of `CCOC(=O)c1ccc(NC(=O)CSc2nnc(-c3ccco3)c(-c3ccco3)n2)cc1`, the IC50 was 19.7 µg/mL (≈ 43.6 µM).

Regarding `COC(=O)COc1cc2oc(=O)cc(-c3ccccc3)c2cc1Cl`, the half-inhibitory concentration (IC50) is 29 µg/mL (≈ 84.1 µM).

As to `Cc1ccccc1C(=O)Nc1sc2c(c1C(=O)NCCO)CCC(C(C)(C)C)C2` (centres undefined), the IC50 was > 50 µg/mL (inactive).

In the case of `Cc1cc(C)nc(/N=C(\N)Nc2cc(Cl)ccc2Oc2ccccc2)n1`, the IC50 was 2.21 µg/mL (≈ 6.01 µM).

On to `Cc1ccc(-c2nnc(SC3=CS(=O)(=O)c4ccccc43)o2)cc1`, for which the IC50 was > 50 µg/mL (inactive).

Values taken from PubChem BioAssay AID1949 (Southern Research Institute, 2009).
